From article PMC12598616, “Design and optimization of caspase-1-responsive fluorescent probes for pyroptosis imaging and anti-pyroptosis drug screening” (Chemical Science, 2025)

What was measured:
[1] = system: activated Cas-1 in primary peritoneal macrophages; test: High-content screening / fluorescence imaging for caspase-1 modulators in primary peritoneal macrophages; type: cell-based, mouse; settings: MCC950 1 μM with Nig 10 μM simultaneously, after LPS; FPy1 5 μM
Description: The efficient and rapid discovery of Cas-1 modulators is of significant importance considering the therapeutic potential of Cas-1 in various diseases.[39,40] Therefore, we employed FPy1 to construct a high-content screening system aimed at identifying Cas-1 modulators. The level of activated Cas-1 in cells is influenced by multiple factors. To reduce the impact of factors that affect Cas-1 activation in cells, we utilized the NLRP3 inflammasome-mediated Cas-1 activation model, administering the drug during the second stage where the zymogen was converted into activated Cas-1. MCC950, a selective NLRP3 inflammasome inhibitor that could suppress Cas-1 activation, was selected as the positive drug.[41] […] To validate the efficacy of the Cas-1 modulator screening system (Fig. 6a), we first observed the fluorescence images of PMs stained with FPy1 (5 μM) in the control group, model group, and positive drug group. […] Subsequently, the impact of 25 natural products (10 μM) on activated Cas-1 were studied using high-content analysis (Fig. S20). […] To determine whether deoxyshikonin directly binds to Cas-1 and inhibits its activity, we conducted fluorescence detection following co-incubation of deoxyshikonin, FPy1 and Cas-1. […]
Harvested rat discs were fixed in 4 % buffered paraformaldehyde for 24 hours, decalcified in 10 % ethylenediaminetetraacetic acid (EDTA, Solarbio, E8030) solution for 1 month, embedded in paraffin, and sectioned at a thickness of 5 μm. […] Stained sections were evaluated by three independent raters, blinded to the research protocol, and measurements were averaged for statistical analysis. […]
In vivo fluorescence imaging of intervertebral disc degeneration
Twelve rats were modeled with needle puncture-induced intervertebral disc degeneration at the Co5/6, Co6/7 and Co 7/8 levels. […] In vivo fluorescence images were acquired using an in vivo Imaging System (PerkinElmer). […]
In vivo fluorescence imaging of osteoarthritis […]

[2] = molecular target: T1, caspase-1 (Homo sapiens, UniProt P29466); test: Sensitivity of probes for caspase-1 (fluorescence at 585 nm); type: biochemical; settings: probe 5 μM
T1 sequence (P29466 120-297 limits assumed): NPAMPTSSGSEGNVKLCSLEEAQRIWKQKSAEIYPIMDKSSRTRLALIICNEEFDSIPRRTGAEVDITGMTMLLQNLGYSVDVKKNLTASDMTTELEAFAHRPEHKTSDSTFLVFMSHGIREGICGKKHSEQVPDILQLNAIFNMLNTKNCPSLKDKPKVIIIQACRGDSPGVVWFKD
T1 sequence (P29466 317-404 limits assumed): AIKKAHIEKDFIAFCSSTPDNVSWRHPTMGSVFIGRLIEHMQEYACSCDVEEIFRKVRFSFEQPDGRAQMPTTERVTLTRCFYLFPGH
Protocol: The spectral and chemical properties of all probes were then evaluated. Upon interaction with Cas-1, the specific peptide of the probes is cleaved, leading to the disruption of the FRET process in the system and the recovery of donor fluorescence (Fig. 2a). Prior to fluorescence detection, the UV-vis absorption spectra of the probes were acquired. […] Subsequently, the sensitivity of the probes towards Cas-1 was measured in HEPES buffer (50 mM HEPES, 50 mM NaCl, 0.1% chaps, 5% glycerol, 10 mM DTT, 10 mM EDTA). […] The response differences among the probes were more intuitively observed by analyzing the standard curves of fluorescence intensity at 585 nm against the concentration of Cas-1 (Fig. 2b). […] The reaction kinetics of the probes were also measured by monitoring the fluorescence intensity of FPy1, YPy1 and WPy1 (0.5–4 μM) following incubation with Cas-1 (2 U mL^−1) (Fig. S3a–f). […] The reaction time of the probes was also investigated by monitoring the fluorescence spectra of the probes (5 μM) incubated with Cas-1 (2 U mL^−1) at various time intervals (Fig. S4a–c). […] Finally, the selectivity of the probes was evaluated. A series of potential biologically relevant interferents were selected, and the results illustrated that these interferents had no effect on the probes (Fig. S5a–c). Further selectivity validation was performed through incubating with caspase-3 (1 μg mL^−1), caspase-4 (2 U mL^−1), caspase-8 (1 μg mL^−1) from the caspase protease family. […] Therefore, FPy1 appeared to be the prime candidate for Cas-1 imaging applications. […]
(§1) Cell culture plates were sourced from Wuxi NEST Biotechnology. Recombinant human caspase-1, caspase-3, caspase-4, and caspase-8 were obtained from Abcam and MCE (Shanghai, China). Anti-cleaved caspase-1 antibody, anti-GAPDH antibody, and goat anti-Rabbit/anti-mouse lgG/HRP were purchased from CST (USA) and Beyotime […]
(§2) (Shanghai, China). […]
(§3) Medical College (ethical approval number ZJCLA-IACUC-20011003).
(§4) (also on this page, place not known: Wang,*f, Wang*abg Supplementary Information (SI) for Chemical Science. This journal is © The Royal Society of Chemistry 2025)
(§5) (1 picture or pasted object on this page, not shown here) […]
mixture was stirred for 3 h. DCM was removed under vacuum, and the residue was purified by silica gel column chromatography (DCM/MeOH, 180/1) to afford WPy1 as a dark purple solid (21 mg, 6 % yield). HRMS (ESI+): calcd […]
Analysis of probe purity by LC-MSD
Prepare dilute solutions of FPy1, YPy1 and WPy1 using chromatographic-grade acetonitrile and transfer them to sample vials. Begin with an initial mobile phase consisting of 20% acetonitrile (0.05 % formic acid) and 80% H2O (0.05 % formic acid). Over the course of 30 minutes, implement a gradient change to a mobile phase of 90% acetonitrile (0.05 % formic acid) and 10% H2O (0.05 % FA). Under the elution conditions, LC-MSD was performed on the above probe solutions and blank solvent acetonitrile.
Sensitivity of probes for caspase-1
(§6) To investigate the sensitivity of the probes for caspase-1, varying concentration of caspase-1 (0, 0.2, 0.4, 0.6, 0.8, 1.0, 1.25, 1.5, 1.75, 2, 2.5, 3 U/mL) were incubated with FPy1 (5 μM), YPy1 (5 μM) and WPy1 (5 μM) respectively in caspase-1 assay buffer (50 mM HEPES, 50 mM NaCl, 0.1 % chaps, 5 % glycerol, 10 mM DTT, 10 mM EDTA) at 37 °C for 2 hours. Fluorescence spectra were recorded using Hitachi F-2700 spectrophotometer with an excitation at 510 nm (Photomultiplier voltage 700 V; Slit widths ex: 10 nm and em =5.0 nm). The fluorescence intensity of FPy1, YPy1 and WPy1 at 585 nm were plotted against the concentration of caspase-1, and a linear regression fitted from the corresponding concentration of caspase-1, and linear regression was applied to determine the slope k. The limit of detection (LoD) was calculated from 3σ/k, in which σ represents the standard deviation of 15 blank measurements.
Various concentrations of FPy1, YPy1 and WPy1 (0.5, 1, 2, 4 μM) in 100 μL enzyme assay buffer (50 mM HEPES, 50 […]

[3] = molecular target: T1, caspase-1; test: Reaction time of probes for caspase-1; type: biochemical; settings: probe 5 μM, Cas-1 2 U/mL, assay buffer, 37 °C
Protocol: The spectral and chemical properties of all probes were then evaluated. Upon interaction with Cas-1, the specific peptide of the probes is cleaved, leading to the disruption of the FRET process in the system and the recovery of donor fluorescence (Fig. 2a). Prior to fluorescence detection, the UV-vis absorption spectra of the probes were acquired. […] Subsequently, the sensitivity of the probes towards Cas-1 was measured in HEPES buffer (50 mM HEPES, 50 mM NaCl, 0.1% chaps, 5% glycerol, 10 mM DTT, 10 mM EDTA). […] The response differences among the probes were more intuitively observed by analyzing the standard curves of fluorescence intensity at 585 nm against the concentration of Cas-1 (Fig. 2b). […] The reaction kinetics of the probes were also measured by monitoring the fluorescence intensity of FPy1, YPy1 and WPy1 (0.5–4 μM) following incubation with Cas-1 (2 U mL^−1) (Fig. S3a–f). […] The reaction time of the probes was also investigated by monitoring the fluorescence spectra of the probes (5 μM) incubated with Cas-1 (2 U mL^−1) at various time intervals (Fig. S4a–c). […] Finally, the selectivity of the probes was evaluated. […]
as §6, with “measurements. […]” for “measurements.”

[4] = system: caspase-8; test: Selectivity of probes: caspase-8; type: biochemical, human; settings: caspase-8 1 μg/mL, 37 °C, 2 h, λex 510 nm, λem 585 nm
Description: as §1, with “The resin used for SPPS was purchased from GL Biochem (Shanghai, China). Lipopolysaccharide (LPS, L2630), Nigericin and ATP (11140965001) were purchased from Merck (Shanghai, China) and Invitrogen (Shanghai, China), respectively. Cell” for “Cell”
as §2, §3, §4, §5
mixture was stirred for 3 h. […]
as §6, with “measurements. […]” for “measurements.”
The fluorescence intensity at 585 nm was measured on a Tecan Infinite M1000 Multi-function microplate reader (λex = 510 nm) at 37 °C every 2 minutes. The K M value of probes was determined from the Lineweaver-Burk plot. […]

Molecule | fluorescence intensity of FPy1, positive drug group vs model group [1] | maximum fluorescence intensity at 585 nm ([2]; compared with FPy1 and YPy1) | baseline fluorescence intensity at 585 nm ([2]; compared with other probes) | linear fitting range of Cas-1 concentration ([2]; fluorescence intensity at 585 nm vs Cas-1 concentration, 37 °C, 2 h) | enhancement of fluorescence intensity at 585 nm ([2]; Cas-1 0–3 U/mL, assay buffer 50 mM HEPES, 50 mM NaCl, 0.1% chaps, 5% glycerol, 10 mM DTT, 10 mM EDTA, 37 °C, 2 h, λex 510 nm) | time to maximum fluorescence intensity at 585 nm (reaction time) [3] [min] | fluorescence response to caspase-8 [4]
CC(C)(O)c1coc(S(=O)(=O)NC(=O)Nc2c3c(cc4c2CCC4)CCC3)c1 [MCC950, reference compound] | significantly lower than in the model group |  |  |  |  |  | 
–WEHDG– [WPy1, caspase-1-responsive FRET probe with recognition peptide –WEHDG–; RhoB donor, hNR quencher] |  | significantly lower than that of FPy1 and YPy1 | lower baseline fluorescence intensity | 0–1.25 U mL^−1 | about 11.5 fold | 60 | a certain level of response to caspase-8
